From DBAASP come the findings set out here.

In brackets after ≈: the same amount, converted by molar mass. Several values for one entry are separate records, joined by “and”; a condition that tells them apart may be missing. Equal entries are not always repeated.

Test systems include Escherichia coli E423-17; Pseudomonas aeruginosa; Bacillus subtilis 168; Staphylococcus aureus; Escherichia coli B; Candida krusei CK802/97; Proteus mirabilis; Bacillus thuringiensis.
Holding throughout (test): ≥ marks a high value that may be exact or a test limit, other limits are often not marked, values filed in µg/mL are converted to µM
For experiment [1], the system named is Pseudomonas aeruginosa ATCC 19660.
In experiment [2] the test system is Pseudomonas aeruginosa PAO1.
The test system of experiment [3] is Staphylococcus aureus USA 300 LAC.
For experiment [4], the system named is Enterobacter cloacae HNTCC 53001.
In experiment [5] the test system is Candida albicans ATCC 90028.
Experiment [6] has as its system Escherichia coli ATCC 25922.
In experiment [7] the test system is Klebsiella pneumoniae KK3 9904.
Experiment [8] has as its system Staphylococcus aureus NCTC 8325.
The subject of experiment [9] is Staphylococcus epidermidis RP62A.
Experiment [10] has as its system Staphylococcus aureus T7/20.
Experiment [11] concerns Pseudomonas aeruginosa ATCC 27853.
Experiment [12] concerns Enterococcus faecalis ATCC 29212.
Experiment [13] relates to Staphylococcus aureus ATCC 25923.
Experiment [14] deals with Bordetella bronchiseptica CUN 11844-99.
Experiment [15] relates to Staphylococcus aureus CUN 3792-99.
Experiment [16] concerns Acinetobacter baumannii ATCC 19606.
In experiment [17] the test system is Staphylococcus aureus ATCC 43300.
Experiment [18] concerns Stenotrophomonas maltophilia CUN 3998-00.
Experiment [19] relates to Pseudomonas aeruginosa CUN 4158-02.
Experiment [20] relates to Candida glabrata CG196/98IDE.
The test system of experiment [21] is Staphylococcus aureus ATCC 6538.
For experiment [22], the system named is Salmonella enterica subsp. enterica serovar Typhimurium ATCC 14028.
The subject of experiment [23] is Bacillus subtilis CCT 2471.
For experiment [24], the system named is Staphylococcus aureus ATCC 29213.
The test system of experiment [25] is Escherichia coli CCT 1371.
Experiment [26] deals with Pseudomonas aeruginosa ATCC 15442.
Experiment [27] has as its system Bacillus cereus ATCC 11778.
Experiment [28] deals with Staphylococcus aureus ATCC 25293.
Experiment [29] concerns Staphylococcus saprophyticus.
Experiment [30] concerns Candida albicans ATCC 18804.
The subject of experiment [31] is Klebsiella aerogenes ATCC 13048.
Experiment [32] relates to Klebsiella pneumoniae ATCC 10031.
Experiment [33] concerns Bacillus subtilis ATCC 6633.
For experiment [34], the system named is Staphylococcus aureus TK784.
Experiment [35] concerns Staphylococcus epidermidis ATCC 12228.
The test system of experiment [36] is Staphylococcus aureus ATCC 6538P.
Experiment [37] concerns Shigella dysenteriae ATCC 9752.
Experiment [38] relates to Micrococcus luteus ATCC 10240.

What is called MIC is the smallest concentration in the dilution series that meets the test's criterion for growth inhibition. Low readings indicate a more susceptible organism, high ones a less susceptible organism. Turning to `CC[C@H](C)[C@H](NC(=O)[C@H](CCCNC(=N)N)NC(=O)[C@H](CCC(N)=O)NC(=O)[C@@H](NC(=O)[C@@H](NC(=O)[C@H](CCCNC(=N)N)NC(=O)[C@H](CCCCN)NC(=O)[C@@H](N)Cc1ccccc1)[C@@H](C)CC)C(C)C)C(=O)N[C@@H](CCCCN)C(=O)N[C@@H](CC(=O)O)C(=O)N[C@@H](Cc1ccccc1)C(=O)N[C@@H](CC(C)C)C(=O)N[C@@H](CCCNC(=N)N)C(=O)N[C@@H](CC(N)=O)C(=O)N[C@@H](CC(C)C)C(=O)N[C@H](C=O)C(C)C` [FKRIVQRIKDFLRNLV], the MIC is no less than 97.7 µM in [1]; 5.66 µM and 4 µM against Escherichia coli E423-17; 48.9 µM and 97.7 µM against Pseudomonas aeruginosa; 48.9 µM and 97.7 µM in experiment [2]; 4 µM (≈ 8.12 µg/mL) in experiment [3].
Take `CC[C@H](C)[C@H](NC(=O)[C@H](CO)NC(=O)[C@H](CC(C)C)NC(=O)[C@@H](N)Cc1ccccc1)C(=O)N[C@H](C(=O)N[C@@H](C)C(=O)N[C@@H](CCCCN)C(=O)N[C@H](C(=O)N[C@@H](CC(C)C)C(=O)NCC(=O)N[C@@H](CO)C(=O)N[C@@H](CC(C)C)C(=O)N[C@@H](Cc1ccccc1)C(N)=O)C(C)C)[C@@H](C)CC` [FLSIIAKVLGSLF]: the MIC is no less than 160 µM in experiment [4]; no less than 160 µM in experiment [5]; greater than 160 µM in [6]; no less than 160 µM in experiment [7]; 5 µM (≈ 7.03 µg/mL) in experiment [8]; 5 µM (≈ 7.03 µg/mL) in experiment [9]. Further, the MIC in [10] is 10 µM (≈ 14.1 µg/mL); in experiment [11] it was greater than 160 µM; in [12], 20 µM (≈ 28.1 µg/mL).
In the case of `NCCCC[C@H](NC(=O)CNC(=O)[C@H](CCCCN)NC(=O)[C@H](Cc1ccccc1)NC(=O)[C@H](CCCCN)NC(=O)[C@H](Cc1c[nH]c2ccccc12)NC(=O)[C@H](CCCN=C(N)N)NC(=O)[C@H](Cc1ccccc1)NC(=O)[C@H](CCCN=C(N)N)NC(=O)[C@H](CCCN=C(N)N)NC(=O)[C@H](Cc1ccc(O)cc1)NC(=O)[C@H](CCCCN)NC(=O)[C@H](CCCCN)NC(=O)[C@H](CS)NC(=O)CN)C(=O)N[C@@H](Cc1ccccc1)C(=O)N[C@@H](Cc1c[nH]c2ccccc12)C(=O)N[C@@H](Cc1ccccc1)C(=O)N[C@@H](Cc1c[nH]c2ccccc12)C(N)=O` [GCKKYRRFRWKFKGKFWFW], the MIC in experiment [13], in experiment [6], in [14], in experiment [15], in [16] and in experiment [11] was 24.1 µM (≈ 64 µg/mL) in each case. Also, the MIC in [17] is 12.1 µM (≈ 32 µg/mL); in experiment [18], no less than 48.2 µM; in experiment [19] it was no less than 48.2 µM.
In the case of `CC[C@H](C)[C@H](NC(=O)[C@H](CC(C)C)NC(=O)[C@H](CCCCN)NC(=O)CNC(=O)[C@H](CC(C)C)NC(=O)[C@@H](NC(=O)[C@H](CCCCN)NC(=O)[C@H](CCCCN)NC(=O)[C@H](Cc1c[nH]c2ccccc12)NC(=O)[C@H](CCSC)NC(=O)CN)[C@@H](C)CC)C(=O)N[C@@H](CCCN=C(N)N)C(N)=O` [GMWKKILGKLIR], the MIC was 0.8 µM (≈ 1.15 µg/mL) against Bacillus subtilis 168; 15 µM (≈ 21.6 µg/mL) against Staphylococcus aureus; 13.1 µM (≈ 18.9 µg/mL) against Pseudomonas aeruginosa; 2.3 µM (≈ 3.32 µg/mL) against Escherichia coli B; no less than 87 µM in experiment [20]; 28 µM and 13 µM with Candida krusei CK802/97.
In the case of `CC[C@H](C)[C@H](N)C(=O)N[C@@H](Cc1ccccc1)C(=O)NCC(=O)N[C@@H](C)C(=O)N[C@H](C(=O)N[C@@H](Cc1c[nH]c2ccccc12)C(=O)N[C@@H](CC(N)=O)C(=O)NCC(=O)N[C@H](C(=O)N[C@@H](CCCCN)C(=O)N[C@@H](CO)C(=O)N[C@@H](CC(C)C)C(=O)N[C@@H](Cc1ccccc1)C(=O)O)[C@@H](C)CC)[C@@H](C)CC` [IFGAIWNGIKSLF], the MIC is 3.4 µM (≈ 4.98 µg/mL) in [21]; 68.2 µM (≈ 100 µg/mL) in [22]; no less than 150 µM in the experiment with Proteus mirabilis; 6.8 µM (≈ 9.97 µg/mL) in experiment [23]; 17.1 µM (≈ 25.1 µg/mL) with Bacillus thuringiensis; 34.1 µM (≈ 50 µg/mL) in [24]. Besides, the MIC in experiment [25] was 3.4 µM (≈ 4.98 µg/mL); in [11], 68.3 µM (≈ 100 µg/mL); in experiment [26], no less than 150 µM; in experiment [27], no less than 68.2 µM; in [28] it was 0.7 µM (≈ 1.03 µg/mL); in experiment [29] it was 0.7 µM (≈ 1.03 µg/mL). Moreover, the results for the MIC in experiment [30] and in [31] were 12.5 µM (≈ 18.3 µg/mL) and no less than 68.2 µM, respectively.
With `CC(C)C[C@H](NC(=O)[C@H](CC(C)C)NC(=O)[C@H](CCCCN)NC(=O)[C@H](CCCCN)NC(=O)[C@H](CC(C)C)NC(=O)[C@H](CC(C)C)NC(=O)[C@H](CCCCN)NC(=O)[C@H](CCCCN)NC(=O)[C@@H](N)CC(C)C)C(=O)N[C@@H](CCCCN)C(=O)N[C@@H](Cc1c[nH]c2ccccc12)C(N)=O` [LKKLLKKLLKW], the MIC in experiment [22] was 2.84 µM (≈ 4 µg/mL); in experiment [32], 2.84 µM (≈ 4 µg/mL); in experiment [33], 1.42 µM (≈ 2 µg/mL); in experiment [34], 11.3 µM (≈ 16 µg/mL); in experiment [6], 2.84 µM (≈ 4 µg/mL); in experiment [35] it was 1.42 µM (≈ 2 µg/mL). The MIC in experiment [36] was determined as 1.42 µM (≈ 2 µg/mL); in [37] it was 1.42 µM (≈ 2 µg/mL); in experiment [38], 2.84 µM (≈ 4 µg/mL); in experiment [11] it was 2.84 µM (≈ 4 µg/mL).
